Reference: patent US20010044416A1 (priority 2000, published 2001)

Tests used:
[1] = test system: HBsAg-specific antibodies; design: species or system BALB/c mice; conditions: mouse, in vivo, po
[2] = test system: HBsAg-specific antibodies (anti-HBs); design: species or system BALB/c mice; conditions: mouse, in vivo
[3] = test system: HBsAg-specific antibodies (anti-HBs); design: species or system BALB/c mice; conditions: mouse, in vivo, po
[4] = in vivo; cited from earlier work

Substance | HBsAg-specific IgG in plasma [1] | enhancement of immune responses (anti-HBs) with IM delivery [2] | anti-HBs IgG titers in plasma [3] | antibody isotypes (IgG1 Th2-like, IgG2a Th1-like) as indication of Th-bias [3] | dose causing severe diarrhea [4] | HBsAg-specific IgG titers, non-CpG ODN versus equivalent dose of CpG ODN [3]
TCCATGACGTTCCTGACGTT [CpG ODN #1826] | now detected | enhancement of immune responses | much higher levels | equally mixed Th1/Th2 response | – | –
Cholera toxin [CT] | – | – | much higher levels | predominance of IgG1 | 1 to 5 µg | –
5′-TCCAGGACTTCTCTCAGGTT-3′ [non-CpG ODN #1982] | now detected | not | much higher levels | predominance of IgG1 | – | no significant difference
